From ChEMBL document CHEMBL4325871 (Eur J Med Chem, 2019) come the findings set out here.

Experiment [1] concerns the target SRSF protein kinase 2 (Homo sapiens) (UniProt P78362). Nature of the experiment: Inhibition of human SRPK2 assessed as residual activity at 1 uM using GRSRSRSRSR as substrate by [gamma-33P]-ATP assay relative to control.
For experiment [2], the target named is MAP kinase-activated protein kinase 5 (Homo sapiens) (UniProt Q8IW41). As to the kind of experiment: Inhibition of human MAPKAPK5 assessed as residual activity at 1 uM using KKLNRTLSVA as substrate by [gamma-33P]-ATP assay relative to control.
Experiment [3] deals with Serine/threonine-protein kinase pim-3 (Homo sapiens) (UniProt Q86V86). As to the kind of experiment: Inhibition of human PIM3 assessed as residual activity at 1 uM using RSRHSSYPAGT as substrate by [gamma-33P]-ATP assay relative to control.
In experiment [4] the target is Glycogen synthase kinase-3 beta (Homo sapiens) (UniProt P49841). As to the kind of experiment: Inhibition of human GSK3B assessed as residual activity at 1 uM using YRRAAVPPSPSLSRHSSPHQ(pS)EDEEE as substrate by [gamma-33P]-ATP assay relative to control.
Chain of Glycogen synthase kinase-3 beta (Homo sapiens) (P49841 whole entry, looked up): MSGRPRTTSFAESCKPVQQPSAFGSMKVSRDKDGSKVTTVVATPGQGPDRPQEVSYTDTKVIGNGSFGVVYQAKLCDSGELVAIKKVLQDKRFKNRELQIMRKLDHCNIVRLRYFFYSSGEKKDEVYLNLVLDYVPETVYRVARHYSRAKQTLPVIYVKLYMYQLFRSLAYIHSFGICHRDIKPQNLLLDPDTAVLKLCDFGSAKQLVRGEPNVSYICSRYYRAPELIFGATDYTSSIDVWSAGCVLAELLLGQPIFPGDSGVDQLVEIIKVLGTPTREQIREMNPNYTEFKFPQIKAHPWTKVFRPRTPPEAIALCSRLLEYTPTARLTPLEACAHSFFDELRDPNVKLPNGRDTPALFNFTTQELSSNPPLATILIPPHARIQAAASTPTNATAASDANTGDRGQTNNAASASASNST
The target of experiment [5] is Myosin-IIIa (Homo sapiens) (UniProt Q8NEV4). Nature of the experiment: Inhibition of human MYO3A assessed as residual activity at 1 uM using MBP as substrate by [gamma-33P]-ATP assay relative to control.
For experiment [6], the target named is RAC-gamma serine/threonine-protein kinase (Homo sapiens) (UniProt Q9Y243). As to the kind of experiment: Inhibition of human AKT3 assessed as residual activity at 1 uM using KGSGSGRPRTSSFAEG as substrate by [gamma-33P]-ATP assay relative to control.
Experiment [7] addresses T1, Serine/threonine-protein kinase Chk1 (Homo sapiens) (UniProt O14757).
T1 sequence (whole entry): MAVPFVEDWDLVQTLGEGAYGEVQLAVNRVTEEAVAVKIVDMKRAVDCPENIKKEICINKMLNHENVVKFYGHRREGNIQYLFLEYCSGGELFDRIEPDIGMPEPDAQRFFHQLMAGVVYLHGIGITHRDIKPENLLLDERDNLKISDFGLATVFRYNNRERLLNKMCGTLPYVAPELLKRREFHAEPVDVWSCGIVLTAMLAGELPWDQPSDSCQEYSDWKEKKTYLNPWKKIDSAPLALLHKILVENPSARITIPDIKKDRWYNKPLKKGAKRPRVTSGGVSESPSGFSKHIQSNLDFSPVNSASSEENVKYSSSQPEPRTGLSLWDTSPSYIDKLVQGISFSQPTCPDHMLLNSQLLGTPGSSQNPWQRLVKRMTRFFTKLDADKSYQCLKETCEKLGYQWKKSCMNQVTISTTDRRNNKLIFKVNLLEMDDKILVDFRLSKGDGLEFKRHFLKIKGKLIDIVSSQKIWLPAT
As to the kind of experiment: Inhibition of hydroxyurea-induced CHK1 phosphorylation at S296 residue in human HCT116 cells at 20 uM treated for 8 hrs starting from 24 hrs post hydroxyurea addition by Western blot analysis. Type of experiment: cell-based. (In general: In western blotting, separated proteins are transferred to a membrane and probed.)

Experiment [8] concerns the target Serine/threonine-protein kinase PLK3 (Homo sapiens) (UniProt Q9H4B4). As to the kind of experiment: Inhibition of human PLK3 assessed as residual activity at 1 uM using casein as substrate by [gamma-33P]-ATP assay relative to control.
The target in experiment [9] is Mitogen-activated protein kinase kinase kinase 10 (Homo sapiens) (UniProt Q02779). Nature of the experiment: Inhibition of human MLK2 assessed as residual activity at 1 uM using MBP as substrate by [gamma-33P]-ATP assay relative to control.
Experiment [10] concerns the target Citron Rho-interacting kinase (Homo sapiens) (UniProt O14578). Nature of the experiment: Inhibition of human STK21 assessed as residual activity at 1 uM using MBP as substrate by [gamma-33P]-ATP assay relative to control.
For experiment [11], the target named is Serine/threonine-protein kinase Nek11 (Homo sapiens) (UniProt Q8NG66). Nature of the experiment: Inhibition of human NEK11 assessed as residual activity at 1 uM using MBP as substrate by [gamma-33P]-ATP assay relative to control.
Experiment [12] concerns the target Protein kinase C gamma type (Homo sapiens) (UniProt P05129). As to the kind of experiment: Inhibition of human PKCgamma assessed as residual activity at 1 uM using ERMRPRKRQGSVRRRV as substrate by [gamma-33P]-ATP assay relative to control.
Experiment [13] concerns the target Serine/threonine-protein kinase/endoribonuclease IRE2 (Homo sapiens) (UniProt Q76MJ5). As to the kind of experiment: Inhibition of human ERN2 assessed as residual activity at 1 uM using MBP as substrate by [gamma-33P]-ATP assay relative to control.
The target of experiment [14] is Tyrosine-protein kinase Blk (Homo sapiens) (UniProt P51451). Nature of the experiment: Inhibition of human BLK assessed as residual activity at 1 uM using poly[Glu:Tyr](4:1) as substrate by [gamma-33P]-ATP assay relative to control.
Experiment [15] deals with PAS domain-containing serine/threonine-protein kinase (Homo sapiens) (UniProt Q96RG2). As to the kind of experiment: Inhibition of human PASK assessed as residual activity at 1 uM using KKLNRTLSFAEPG as substrate by [gamma-33P]-ATP assay relative to control.
The target in experiment [16] is Casein kinase I isoform gamma-1 (Homo sapiens) (UniProt Q9HCP0). Nature of the experiment: Inhibition of human CK1gamma1 assessed as residual activity at 1 uM using KRRRAL[pS]VASLPGL as substrate by [gamma-33P]-ATP assay relative to control.
The target in experiment [17] is Death-associated protein kinase 1 (Homo sapiens) (UniProt P53355). Nature of the experiment: Inhibition of human DAPK1 assessed as residual activity at 1 uM using KKLNRTLSFAEPG as substrate by [gamma-33P]-ATP assay relative to control.
The target in experiment [18] is Serine/threonine-protein kinase N3 (Homo sapiens) (UniProt Q6P5Z2). As to the kind of experiment: Inhibition of human PKN3 assessed as residual activity at 1 uM using KKLNRTLSVA as substrate by [gamma-33P]-ATP assay relative to control.
The target of experiment [19] is Serine/threonine-protein kinase Nek8 (Homo sapiens) (UniProt Q86SG6). As to the kind of experiment: Inhibition of human NEK8 assessed as residual activity at 1 uM using casein as substrate by [gamma-33P]-ATP assay relative to control.
Experiment [20] has as its target CDK1/Cyclin E (Homo sapiens) (UniProt P06493+P24864). As to the kind of experiment: Inhibition of human CDK1/cyclinE assessed as residual activity at 1 uM using RB protein as substrate by [gamma-33P]-ATP assay relative to control. It is filed as protein-complex assay.
In experiment [21] the target is Serine/threonine-protein kinase/endoribonuclease IRE1 (Homo sapiens) (UniProt O75460). Nature of the experiment: Inhibition of human ERN1 assessed as residual activity at 1 uM using MBP as substrate by [gamma-33P]-ATP assay relative to control.
In experiment [22] the target is Receptor-interacting serine/threonine-protein kinase 2 (Homo sapiens) (UniProt O43353). Nature of the experiment: Inhibition of human RIPK2 assessed as residual activity at 1 uM using MBP as substrate by [gamma-33P]-ATP assay relative to control.
Chain of Receptor-interacting serine/threonine-protein kinase 2 (Homo sapiens) (O43353 whole entry): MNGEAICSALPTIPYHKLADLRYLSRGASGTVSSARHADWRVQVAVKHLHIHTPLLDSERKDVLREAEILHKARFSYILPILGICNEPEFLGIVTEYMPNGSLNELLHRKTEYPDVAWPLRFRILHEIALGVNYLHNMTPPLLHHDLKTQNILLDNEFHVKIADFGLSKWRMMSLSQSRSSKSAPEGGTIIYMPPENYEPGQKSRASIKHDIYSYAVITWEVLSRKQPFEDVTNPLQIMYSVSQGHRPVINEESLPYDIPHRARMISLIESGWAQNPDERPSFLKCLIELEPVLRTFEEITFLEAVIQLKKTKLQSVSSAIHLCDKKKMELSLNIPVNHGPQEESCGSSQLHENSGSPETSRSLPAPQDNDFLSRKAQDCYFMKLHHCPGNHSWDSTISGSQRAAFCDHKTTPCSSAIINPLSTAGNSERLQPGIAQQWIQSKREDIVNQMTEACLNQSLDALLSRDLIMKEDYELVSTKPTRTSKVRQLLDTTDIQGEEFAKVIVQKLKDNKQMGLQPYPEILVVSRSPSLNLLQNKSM
Experiment [23] deals with Calcium/calmodulin-dependent protein kinase kinase 2 (Homo sapiens) (UniProt Q96RR4). As to the kind of experiment: Inhibition of human CAMKK2 assessed as residual activity at 1 uM using MBP as substrate by [gamma-33P]-ATP assay relative to control.

Activity calls are given as the source filed them. The rule behind the calls is not given here.

Chain of Citron Rho-interacting kinase (Homo sapiens) (O14578 whole entry): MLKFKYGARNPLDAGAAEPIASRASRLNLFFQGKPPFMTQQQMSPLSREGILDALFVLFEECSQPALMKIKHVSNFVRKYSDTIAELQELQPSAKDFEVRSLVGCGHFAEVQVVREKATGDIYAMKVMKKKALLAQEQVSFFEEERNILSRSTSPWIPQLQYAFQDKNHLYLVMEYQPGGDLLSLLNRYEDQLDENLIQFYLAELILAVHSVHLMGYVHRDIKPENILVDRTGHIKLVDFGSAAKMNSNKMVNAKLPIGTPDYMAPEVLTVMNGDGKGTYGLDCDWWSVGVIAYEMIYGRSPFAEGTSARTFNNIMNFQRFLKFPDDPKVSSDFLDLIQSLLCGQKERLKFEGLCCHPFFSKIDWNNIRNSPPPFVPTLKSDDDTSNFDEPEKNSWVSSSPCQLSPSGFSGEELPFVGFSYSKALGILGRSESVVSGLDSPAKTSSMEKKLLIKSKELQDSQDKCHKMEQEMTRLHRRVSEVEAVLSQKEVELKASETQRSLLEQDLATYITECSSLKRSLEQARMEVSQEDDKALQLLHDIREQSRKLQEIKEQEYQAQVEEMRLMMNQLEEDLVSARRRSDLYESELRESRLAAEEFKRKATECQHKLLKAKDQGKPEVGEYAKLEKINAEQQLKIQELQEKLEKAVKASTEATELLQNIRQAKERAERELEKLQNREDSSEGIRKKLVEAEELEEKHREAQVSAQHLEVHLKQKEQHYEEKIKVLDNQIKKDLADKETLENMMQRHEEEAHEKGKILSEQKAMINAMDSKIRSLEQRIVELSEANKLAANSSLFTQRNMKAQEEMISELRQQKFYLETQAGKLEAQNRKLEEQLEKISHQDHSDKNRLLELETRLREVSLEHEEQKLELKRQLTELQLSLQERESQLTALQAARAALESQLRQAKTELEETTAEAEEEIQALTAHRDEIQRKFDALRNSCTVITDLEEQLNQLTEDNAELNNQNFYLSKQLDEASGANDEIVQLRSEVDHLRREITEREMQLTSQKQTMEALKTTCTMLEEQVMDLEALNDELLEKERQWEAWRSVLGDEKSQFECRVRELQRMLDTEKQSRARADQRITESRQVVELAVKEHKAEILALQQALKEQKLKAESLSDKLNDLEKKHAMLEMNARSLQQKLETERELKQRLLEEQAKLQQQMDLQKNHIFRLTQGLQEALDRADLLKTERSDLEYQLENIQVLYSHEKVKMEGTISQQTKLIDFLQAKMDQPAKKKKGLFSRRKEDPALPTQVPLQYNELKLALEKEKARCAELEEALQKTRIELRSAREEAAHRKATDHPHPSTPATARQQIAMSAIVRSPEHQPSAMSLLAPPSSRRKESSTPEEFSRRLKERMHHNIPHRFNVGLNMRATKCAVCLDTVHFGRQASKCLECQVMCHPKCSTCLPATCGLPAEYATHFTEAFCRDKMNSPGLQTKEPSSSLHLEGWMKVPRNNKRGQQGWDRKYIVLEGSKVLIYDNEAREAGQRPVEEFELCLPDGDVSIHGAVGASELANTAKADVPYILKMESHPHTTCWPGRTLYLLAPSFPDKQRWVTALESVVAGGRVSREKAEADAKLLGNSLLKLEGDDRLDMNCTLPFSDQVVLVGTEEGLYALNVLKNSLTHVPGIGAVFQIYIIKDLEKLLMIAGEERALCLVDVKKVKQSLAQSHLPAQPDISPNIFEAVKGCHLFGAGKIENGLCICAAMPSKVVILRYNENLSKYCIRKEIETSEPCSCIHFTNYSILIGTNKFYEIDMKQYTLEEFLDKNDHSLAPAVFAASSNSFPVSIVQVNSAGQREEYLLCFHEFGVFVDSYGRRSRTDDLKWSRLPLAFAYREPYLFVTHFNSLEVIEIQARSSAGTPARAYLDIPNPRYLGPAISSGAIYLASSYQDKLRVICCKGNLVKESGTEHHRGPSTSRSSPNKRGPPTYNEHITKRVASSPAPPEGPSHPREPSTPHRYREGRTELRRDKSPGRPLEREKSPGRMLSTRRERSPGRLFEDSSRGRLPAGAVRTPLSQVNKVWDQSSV
Chain of SRSF protein kinase 2 (Homo sapiens) (P78362 whole entry, looked up): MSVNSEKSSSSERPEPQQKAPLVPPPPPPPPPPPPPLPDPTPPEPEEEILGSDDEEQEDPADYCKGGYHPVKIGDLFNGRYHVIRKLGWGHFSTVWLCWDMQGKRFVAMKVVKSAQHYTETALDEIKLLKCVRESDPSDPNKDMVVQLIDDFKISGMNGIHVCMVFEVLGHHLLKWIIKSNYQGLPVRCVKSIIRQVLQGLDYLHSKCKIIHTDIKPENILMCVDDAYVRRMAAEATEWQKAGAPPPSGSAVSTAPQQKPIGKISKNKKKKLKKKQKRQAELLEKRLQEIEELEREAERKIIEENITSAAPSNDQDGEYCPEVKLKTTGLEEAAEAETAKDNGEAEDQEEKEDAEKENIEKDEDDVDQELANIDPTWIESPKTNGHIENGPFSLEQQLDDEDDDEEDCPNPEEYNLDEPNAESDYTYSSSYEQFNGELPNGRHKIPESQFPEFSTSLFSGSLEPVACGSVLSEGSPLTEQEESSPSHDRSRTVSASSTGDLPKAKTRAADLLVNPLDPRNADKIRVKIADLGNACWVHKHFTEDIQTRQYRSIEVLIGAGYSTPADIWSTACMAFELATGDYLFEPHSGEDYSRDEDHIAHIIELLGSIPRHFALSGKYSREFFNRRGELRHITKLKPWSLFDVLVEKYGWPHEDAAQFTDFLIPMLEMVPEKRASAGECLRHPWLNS
Chain of Serine/threonine-protein kinase PLK3 (Homo sapiens) (Q9H4B4 whole entry, looked up): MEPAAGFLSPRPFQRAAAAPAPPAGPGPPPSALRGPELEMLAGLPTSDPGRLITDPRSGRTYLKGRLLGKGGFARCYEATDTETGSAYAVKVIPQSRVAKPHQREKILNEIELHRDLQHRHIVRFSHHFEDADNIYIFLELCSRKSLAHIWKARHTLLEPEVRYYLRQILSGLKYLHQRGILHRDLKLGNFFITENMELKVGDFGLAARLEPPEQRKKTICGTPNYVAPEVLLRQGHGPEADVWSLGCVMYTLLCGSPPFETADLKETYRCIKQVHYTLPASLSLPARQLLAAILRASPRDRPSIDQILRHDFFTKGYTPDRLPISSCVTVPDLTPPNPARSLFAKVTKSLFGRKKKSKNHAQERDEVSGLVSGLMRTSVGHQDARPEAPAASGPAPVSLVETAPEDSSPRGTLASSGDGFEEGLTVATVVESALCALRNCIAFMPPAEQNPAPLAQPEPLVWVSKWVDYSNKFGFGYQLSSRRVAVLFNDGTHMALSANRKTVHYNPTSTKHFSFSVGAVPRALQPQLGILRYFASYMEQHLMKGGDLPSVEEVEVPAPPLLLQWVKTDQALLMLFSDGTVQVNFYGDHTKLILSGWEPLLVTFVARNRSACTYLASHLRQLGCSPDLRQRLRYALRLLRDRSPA

Consider `C(=C\c1ccccc1)/C[N+]12CN3CN(CN(C3)C1)C2`, for which the Activity lay in the range of 107 to 111% in experiment [1]; 93.2 to 94.5% in experiment [2]; 104 to 107% in [3]; 93.6 to 94.9% in experiment [4]; 113 to 122% in [5]; 95.9 to 96% in experiment [6]. For the same molecule, the Activity in experiment [8] was in the range of 96.3 to 96.8%; in experiment [9] it was 96 to 96.1%; in experiment [10] it was 92.4 to 95.5%; in [11], 95 to 96.2%; in [12], 94.5 to 96.3%; in experiment [13] it was 94.5 to 96.6%. For the same molecule, the inhibition result in [7] is “Active”.
For the molecule `ClC/C=C/C[N+]12CN3CN(CN(C3)C1)C2`, the Activity was in the range of 93.1 to 94.8% in [14]; 94.3 to 95.1% in experiment [15]; 94.4 to 96.5% in experiment [16]; 119 to 135% in experiment [17]; 92.3 to 92.9% in [18]; 88.6 to 89% in experiment [19]. For the same molecule, the Activity in [20] is 98.8 to 100%; in experiment [21], 92.5 to 94.8%; in experiment [22] it was 95.4 to 96.7%; in experiment [23], 83.7 to 87.4%.
